Experiment [1] has as its target S. aureus DNA gyrase (Staphylococcus aureus, UniProt P0A0K8+P20831). It counts as biochemical.
Experiment [2] has as its target E. coli DNA gyrase (Escherichia coli, UniProt P0AES4+P0AES6). It counts as biochemical.

Chain of S. aureus DNA gyrase (P20831 whole entry): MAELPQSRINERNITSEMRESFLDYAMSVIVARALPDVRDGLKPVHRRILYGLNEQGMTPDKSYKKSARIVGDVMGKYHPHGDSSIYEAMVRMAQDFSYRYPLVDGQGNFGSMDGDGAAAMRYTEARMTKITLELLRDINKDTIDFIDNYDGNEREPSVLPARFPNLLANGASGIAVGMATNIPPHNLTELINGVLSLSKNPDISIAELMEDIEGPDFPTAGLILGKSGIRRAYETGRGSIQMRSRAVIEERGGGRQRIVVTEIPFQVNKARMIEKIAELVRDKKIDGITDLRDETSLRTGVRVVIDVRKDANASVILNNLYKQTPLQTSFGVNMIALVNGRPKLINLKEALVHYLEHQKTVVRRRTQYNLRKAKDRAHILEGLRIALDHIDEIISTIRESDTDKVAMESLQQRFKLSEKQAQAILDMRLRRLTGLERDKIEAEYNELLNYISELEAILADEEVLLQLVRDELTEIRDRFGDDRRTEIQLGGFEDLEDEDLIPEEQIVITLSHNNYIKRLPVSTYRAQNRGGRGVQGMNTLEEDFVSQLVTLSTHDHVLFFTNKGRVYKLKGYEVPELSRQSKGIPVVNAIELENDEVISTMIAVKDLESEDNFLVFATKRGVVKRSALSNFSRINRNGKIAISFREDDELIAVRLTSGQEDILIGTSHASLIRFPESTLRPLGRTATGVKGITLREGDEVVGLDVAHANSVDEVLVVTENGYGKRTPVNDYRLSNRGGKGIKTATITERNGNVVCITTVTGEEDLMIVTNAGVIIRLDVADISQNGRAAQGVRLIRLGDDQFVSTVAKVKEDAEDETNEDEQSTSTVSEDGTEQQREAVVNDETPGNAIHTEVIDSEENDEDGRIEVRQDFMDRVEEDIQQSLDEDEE
Chain of S. aureus DNA gyrase (P0A0K8 whole entry): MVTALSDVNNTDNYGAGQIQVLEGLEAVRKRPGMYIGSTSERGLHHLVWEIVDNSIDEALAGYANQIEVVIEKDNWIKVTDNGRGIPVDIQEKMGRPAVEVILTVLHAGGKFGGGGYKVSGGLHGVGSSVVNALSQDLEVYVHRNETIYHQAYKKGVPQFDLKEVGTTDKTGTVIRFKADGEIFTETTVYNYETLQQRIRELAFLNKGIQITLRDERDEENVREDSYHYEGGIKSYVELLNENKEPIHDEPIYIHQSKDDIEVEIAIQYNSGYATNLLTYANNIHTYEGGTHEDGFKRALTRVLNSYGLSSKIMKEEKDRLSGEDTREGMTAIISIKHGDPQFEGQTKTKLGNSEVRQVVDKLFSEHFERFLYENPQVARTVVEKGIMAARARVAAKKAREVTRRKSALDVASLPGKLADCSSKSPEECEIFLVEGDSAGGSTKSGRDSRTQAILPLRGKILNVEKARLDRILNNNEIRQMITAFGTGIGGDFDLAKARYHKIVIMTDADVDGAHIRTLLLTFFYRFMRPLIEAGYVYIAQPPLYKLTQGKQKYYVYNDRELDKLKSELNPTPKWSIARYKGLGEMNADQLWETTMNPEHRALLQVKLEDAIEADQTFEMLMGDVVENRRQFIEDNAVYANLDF
Chain of E. coli DNA gyrase (P0AES4 whole entry, one chain of several): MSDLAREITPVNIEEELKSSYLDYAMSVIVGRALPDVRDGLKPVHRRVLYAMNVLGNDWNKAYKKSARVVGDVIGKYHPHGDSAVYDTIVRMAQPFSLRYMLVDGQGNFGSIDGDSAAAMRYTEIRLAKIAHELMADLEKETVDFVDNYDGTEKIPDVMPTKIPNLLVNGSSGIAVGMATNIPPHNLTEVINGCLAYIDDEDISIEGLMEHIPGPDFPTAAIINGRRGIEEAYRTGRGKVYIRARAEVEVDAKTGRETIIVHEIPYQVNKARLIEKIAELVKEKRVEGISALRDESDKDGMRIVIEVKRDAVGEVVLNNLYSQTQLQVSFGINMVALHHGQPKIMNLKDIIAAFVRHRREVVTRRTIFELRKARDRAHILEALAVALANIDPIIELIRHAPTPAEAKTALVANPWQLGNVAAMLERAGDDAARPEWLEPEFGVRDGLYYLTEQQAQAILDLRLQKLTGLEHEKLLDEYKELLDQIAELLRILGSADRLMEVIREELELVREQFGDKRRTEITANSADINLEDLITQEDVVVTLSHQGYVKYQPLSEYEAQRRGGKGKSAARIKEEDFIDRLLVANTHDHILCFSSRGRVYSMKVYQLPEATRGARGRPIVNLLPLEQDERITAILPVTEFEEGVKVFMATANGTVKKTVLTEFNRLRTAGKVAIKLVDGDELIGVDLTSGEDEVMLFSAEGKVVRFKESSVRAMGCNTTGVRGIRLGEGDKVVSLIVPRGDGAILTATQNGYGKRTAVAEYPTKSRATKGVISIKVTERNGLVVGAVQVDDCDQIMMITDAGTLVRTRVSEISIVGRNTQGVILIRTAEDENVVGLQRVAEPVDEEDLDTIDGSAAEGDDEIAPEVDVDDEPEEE

Take `O=c1oc2ccccc2c2[nH]c(CNCC3CCN(c4nccc5ccc(F)cc45)C3)cc12` (single isomer, unassigned) [Compound 180, 2-[({[1-(7-fluoroisoquinolin-1-yl)pyrrolidin-3-yl]methyl}amino)methyl][1]benzopyrano[4,3-b]pyrrol-4(1H)-one]: the “S. aureus % inhibition DNA gyrase” value in experiment [1] was found to be 90%. The “E. coli % inhibition DNA gyrase” value in experiment [2] came to 58%.

`O=c1oc2ccccc2c2[nH]c(CNCC3CN(c4nccc5ccc(F)cc45)CCO3)cc12` (single isomer, unassigned) [Compound 182, 2-[({[4-(7-fluoroisoquinolin-1-yl)morpholin-2-yl]methyl}amino)methyl][1]benzopyrano[4,3-b]pyrrol-4(1H)-one]: the “S. aureus % inhibition DNA gyrase” value in experiment [1] was 92%. Moreover, the “E. coli % inhibition DNA gyrase” value in experiment [2] is on record as 61%.
